The source of these data is patent publication US9556159B2, “Renin inhibitor” (MITSUBISHI TANABE PHARMA CORPORATION, priority 2012, dated 2017).

Where two headings read alike, the source gives them in different places.

Broadly, the IC50 is the point on the concentration scale where inhibition reaches its midpoint.

The assay has as its target T1, Recombinant human renin (Homo sapiens, UniProt P00797).
T1 sequence (P00797 67-406): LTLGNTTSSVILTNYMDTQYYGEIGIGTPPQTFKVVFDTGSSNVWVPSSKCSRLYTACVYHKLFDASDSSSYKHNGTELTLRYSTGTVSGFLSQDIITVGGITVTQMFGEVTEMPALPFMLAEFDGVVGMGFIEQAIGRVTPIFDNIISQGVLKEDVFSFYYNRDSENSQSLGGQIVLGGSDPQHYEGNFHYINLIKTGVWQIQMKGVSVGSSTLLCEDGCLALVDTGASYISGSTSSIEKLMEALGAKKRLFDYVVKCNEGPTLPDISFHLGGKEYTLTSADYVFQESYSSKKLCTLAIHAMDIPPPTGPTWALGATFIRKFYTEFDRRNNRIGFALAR
The assay can be described thus: Inhibitory activity against human renin (fluorogenic peptide substrate). Type of assay: biochemical. To be noted: 37° C. for 1 hour. How it is done: Inhibitory Activity Against Human Renin
A substrate of synthetic peptide (Nma-KHPFH LVIHK(Dnp)-NH2) and test compound were mixed, and fluorescence intensity was assayed using a fluorophotometer before starting an enzymatic reaction (exciting wavelength: 340 nm, measuring wavelength: 460 nm). Recombinant human renin was added and the mixture was incubated at 37° C. for 1 hour, and the fluorescence intensity was measured after the reaction using a fluorophotometer (exciting wavelength: 340 nm, measuring wavelength: 460 nm).

Setting [1] is: 50% inhibitory concentration (IC50) against human renin.

For the compound `COC[C@H]1CO[C@@H](C(=O)N(C2CC2)[C@@H](C)c2cnc(OC)c(CCCNC(=O)OC)c2)CN1` [Example 309], the half-maximal inhibitory concentration (IC50) under setting [1] was found to be 7.1 nM.
Turning to `COC(=O)NCCCn1nc([C@@H](C)N(C(=O)[C@H]2CNCCO2)C2CC2)c2ccc(CN(C)C)cc21` [Example 111], the IC50 (read-out: IC50) was determined as 3.5 nM.
Turning to `COCCCn1nc(C)c2ccc([C@@H](C)N(C(=O)[C@H]3CNCCO3)C3CC3)nc21` [Example 44], the IC50 (read-out: IC50) was found to be 3 nM.
Take `COC(=O)NCCCc1cc([C@H](C)N(C(=O)[C@H]2CNC[C@@H](CF)O2)C2CC2)cc(OC)n1` [Example 314]: the IC50 under setting [1] came out at 0.5 nM.
Turning to `COCCCCc1cc([C@@H](C)N(C(=O)[C@H]2CNCCO2)C2CC2)cc(C(C)C)n1` [Example 110], the IC50 (read-out: IC50) was found to be 0.9 nM.
As to `CCOc1ccc([C@@H](C)N(C(=O)[C@H]2CNCCO2)C2CC2)cc1CCCNC(=O)OC` [Example 106], the 50% inhibitory concentration (IC50) (read-out: IC50) stood at 0.7 nM.
On to `COCCCCc1cc(C(C)N(C(=O)[C@H]2CNCCO2)C2CC2)cnc1OC` (stereo partly drawn) [Example 25], for which the IC50 (read-out: IC50) stood at 6.3 nM.
Take `COC(=O)NCCCc1cc(F)cc([C@@H](C)N(C(=O)[C@H]2CNCCO2)C2CC2)c1` [Example 92]: for the setting “read-out: IC50”, the IC50 is 1.9 nM.
As for `COC(=O)NCCCn1nc([C@@H](C)N(C(=O)[C@H]2CNC[C@@H](C(=O)OC)O2)C2CC2)c2ccc(C)nc21` [Example 254], under setting [1], the half-inhibitory concentration (IC50) turned out to be 0.5 nM.
On the same count and under the same terms, the result for `CCc1nc([C@@H](C)N(C(=O)[C@H]2CN[C@@H](C)CO2)C2CC2)cc2c1ncn2CCCOC` [Example 389] reads 6.1 nM; that for `COC(=O)NCCCn1nc([C@@H](C)N(C(=O)[C@H]2CNCCO2)C2CC2)c2c1C(C)(C)CC2` [Example 233], 0.3 nM.
On the same count and under the same terms, with `COC(=O)NCCCc1cc([C@@H](C)N(C(=O)[C@H]2CNCCO2)C2CC2)sc1-c1cncnc1` [Example 242] the figure was 0.8 nM; with `COC(=O)NCCCc1cc([C@@H](C)N(C(=O)[C@H]2CNCCO2)C2CC2)nc2c1CCCC2` [Example 122], 0.2 nM.
The same measure, in the same setting: the result for `COC(=O)NCCCc1cc([C@@H](C)N(C(=O)[C@H]2CNCCO2)C2CC2)nn1-c1cccc(C(F)(F)F)c1` [Example 348] reads 0.7 nM.
Turning to `COC(=O)NCCOc1cc([C@@H](C)N(C(=O)[C@H]2CNCCO2)C2CC2)nc2c1CCCC2` [Example 104], the IC50 (read-out: IC50) turned out to be 8.2 nM.
`CCc1nc([C@H](C)N(C(=O)[C@H]2CN[C@@H](C)CO2)C2CC2)cc2c1ccn2CCCOC` [Example 397]: under setting [1], the IC50 was determined as 1.3 nM.
The same measure, in the same setting: with `COC(=O)NCCCc1cc([C@@H](C)N(C(=O)[C@H]2CNC[C@@H](CF)O2)C2CC2)nn1-c1ccccc1` [Example 369] the figure was 1.5 nM.
For `COC(=O)NCCCn1nc([C@@H](C)N(C(=O)[C@H]2CNCCO2)C2CC2)c2ccc(C3CC3)cc21` [Example 59], the IC50 (read-out: IC50) came out at 0.9 nM.
Turning to `CCc1cc(CCCNC(=O)OC)nc([C@@H](C)N(C(=O)[C@H]2CNCCO2)C2CC2)n1` [Example 399], under setting [1], the half-inhibitory concentration (IC50) came out at 4 nM.
As for `COCCCc1cn(C)c2ccc([C@@H](C)N(C(=O)[C@H]3CNCCO3)C3CC3)nc12` [Example 39], the IC50 (read-out: IC50) came to 2 nM.
For the compound `C[C@H](c1cn(Cc2cccc(OC(F)(F)F)c2)c(-c2ccccc2)n1)N(C(=O)[C@H]1CNCCO1)C1CC1` [Example 207], the IC50 under setting [1] is 6.9 nM.
For the compound `COCCCc1nn(C)c2ccc([C@@H](C)N(C(=O)[C@H]3CNCCO3)C3CC3)cc12` [Example 15], under “read-out: IC50”, the IC50 turned out to be 2.6 nM.
The same measure, in the same setting: the result for `COC(=O)NCCCn1nc([C@@H](C)N(C(=O)[C@H]2CNCCO2)C2CC2)c2cccc(F)c21` [Example 76] reads 0.6 nM.
For the compound `CCc1nc([C@@H](C)N(C(=O)[C@H]2CNCCO2)C2CC2)cc2c1c(F)cn2CCCOC` [Example 155], the IC50 under setting [1] came to 0.8 nM.
The same measure, in the same setting: with `COC(=O)NCCCn1nc([C@@H](C)N(C(=O)[C@H]2CNCCO2)C2CC2)c(C)c1-c1ncccc1F` [Example 234] the figure was 0.4 nM.
`COC(=O)NCCCc1cc(C(C)N(C(=O)[C@H]2CNCCO2)C2CC2)sc1C1CCOCC1` (stereo partly drawn) [Example 419]: the IC50 under setting [1] amounted to 1.4 nM.
For the compound `COC(=O)NCCCc1sc([C@@H](C)N(C(=O)[C@H]2CNCCO2)C2CC2)cc1Br` [Example 438], the 50% inhibitory concentration (IC50) under setting [1] was determined as 2.4 nM.
On the same count and under the same terms, with `COC(=O)NCCCn1nc([C@@H](C)N(C(=O)[C@H]2CNCC(C)(C)O2)C2CC2)c2ccc(C)nc21` [Example 166] the figure was 7 nM; with `COC(=O)NCCCc1nc([C@@H](C)N(C(=O)[C@H]2CNCCO2)C2CC2)cnc1O[C@H]1CCOC1` [Example 424], 5 nM.
Turning to `COC(=O)NCCCn1cc([C@H](C)N(C(=O)[C@H]2CN[C@@H](C)CO2)C2CC2)nc1C1CCCCC1` [Example 335], the IC50 under setting [1] worked out at 0.9 nM.
For `COCc1ccc([C@@H](C)N(C(=O)[C@H]2CNCCO2)C2CC2)cc1CCCNC(=O)OC` [Example 96], the IC50 (read-out: IC50) was determined as 0.8 nM.
For `COC[C@@H]1CNC[C@H](C(=O)N(C2CC2)[C@H](C)c2cn(CCCNC(=O)OC)c3ncccc23)O1` [Example 292], the IC50 under setting [1] was 0.4 nM.
On the same count and under the same terms, with `COC(=O)NCCCc1cc([C@@H](C)N(C(=O)[C@H]2CN[C@@H](CF)CO2)C2CC2)nn1-c1ccc(F)cc1` [Example 372] the figure was 6 nM; with `CCCCCc1cc([C@@H](C)N(C(=O)[C@H]2CNC[C@@H](C)O2)C2CC2)sc1-c1ccccc1-c1nn[nH]n1` [Example 294], 6 nM; with `COC(=O)NCCCn1nc([C@@H](C)N(C(=O)[C@H]2CNCCO2)C2CC2)cc1-c1ccc(OC)nc1` [Example 174], 0.4 nM.
On the same count and under the same terms, the result for `COC(=O)NCCCc1cc([C@@H](C)N(C(=O)[C@H]2CNCCO2)C2CC2)sc1-c1ccccc1` [Example 197] reads 0.2 nM.
Turning to `COCCCn1ncc2c(F)cc([C@@H](C)N(C(=O)[C@H]3CNCCO3)C3CC3)cc21` [Example 23], for the setting “read-out: IC50”, the concentration for half-maximal inhibition (IC50) amounted to 2.4 nM.
For the compound `COC(=O)NCCCn1nc([C@@H](C)N(C(=O)[C@H]2CNCCO2)C2CC2)c2ccc(C3CC3)nc21` [Example 82], the IC50 (read-out: IC50) is 0.5 nM.
Consider `COC(=O)NCCCn1cc([C@@H](C)N(C(=O)[C@H]2CNC[C@@H](C(F)(F)F)O2)C2CC2)nc1-c1ccccc1` [Example 219], for which, under setting [1], the IC50 worked out at 0.4 nM.
As for `COc1ccc2nc([C@@H](C)N(C(=O)[C@H]3CNCCO3)C3CC3)cc(CCCNC(C)=O)c2c1` [Example 156], the IC50 under setting [1] was 2.1 nM.
On to `COC(=O)NCCCc1sc([C@@H](C)N(C(=O)[C@H]2CNCCO2)C2CC2)cc1-c1ccccc1CO` [Example 435], for which the IC50 under setting [1] turned out to be 1.3 nM.
For `COC(=O)NCCCn1nc([C@@H](C)N(C(=O)[C@H]2CNCCO2)C2CC2)c2ccc(C(C)C)nc21` [Example 90], the IC50 (read-out: IC50) was 0.8 nM.
As to `COC(=O)NCCCn1nc([C@@H](C)N(C(=O)[C@H]2CN[C@@H](CF)CO2)C2CC2)c2ccc(C)nc21` [Example 265], the IC50 under setting [1] came out at 6.8 nM.
Same read-out and setting: with `COC(=O)NCCCn1cc([C@@H](C)N(C(=O)[C@H]2CNCCO2)C2CC2)nc1-c1cccc(C)c1` [Example 178] the figure was 0.3 nM.
Take `COC[C@H]1CO[C@@H](C(=O)N(C2CC2)[C@@H](C)c2cc(C3CCOCC3)n(CCCNC(=O)OC)n2)CN1` [Example 323]: the IC50 under setting [1] is 2 nM.
The same measure, in the same setting: the result for `COC(=O)NCC(F)Cn1nc([C@@H](C)N(C(=O)[C@H]2CNCCO2)C2CC2)cc1-c1ccccc1` (stereo partly drawn) [Example 198] reads 0.2 nM; that for `COC(=O)NCCCc1cc([C@@H](C)N(C(=O)[C@H]2CNC[C@@H](C)O2)C2CC2)nn1-c1cccc(F)c1F` [Example 347], 0.7 nM.
In the case of `COC(=O)NCCCn1nc([C@@H](C)N(C(=O)[C@H]2CNCCO2)C2CC2)c2ccc(OC)cc21` [Example 41], the IC50 (read-out: IC50) worked out at 0.7 nM.
In the case of `COC(=O)NCCCc1cc([C@@H](C)N(C(=O)[C@H]2CNCCO2)C2CC2)cc(C2CC2)n1` [Example 129], the IC50 under setting [1] came to 1.3 nM.
With `COCCCCn1cc([C@@H](C)N(C(=O)[C@H]2CNCCO2)C2CC2)c2ncc(C3CC3)cc21` [Example 36], the IC50 (read-out: IC50) was 0.5 nM.
Consider `CCc1cn(CCCOC)c2cc([C@@H](C)N(C(=O)[C@H]3CNCCO3)C3CC3)nc(C#N)c12` [Example 150], for which the IC50 under setting [1] came out at 2.6 nM.
On the same count and under the same terms, the result for `COC(=O)NCCCc1nc([C@@H](C)N(C(=O)[C@H]2CNCCO2)C2CC2)sc1-c1ccnn1C` [Example 415] reads 0.6 nM.
Same read-out and setting: the result for `COC(=O)NCCCn1cc([C@@H](C)N(C(=O)[C@H]2CNCCO2)C2CC2)nc1-c1ccccc1C` [Example 179] reads 0.3 nM.
Take `COC(=O)NCCCn1nc([C@@H](C)N(C(=O)[C@H]2CNCCO2)C2CC2)c(F)c1-c1ccccc1` [Example 192]: the IC50 under setting [1] worked out at 0.2 nM.
`COCc1ccc([C@@H](C)N(C(=O)[C@H]2CNCCO2)C2CC2)cc1OCCNC(=O)OC` [Example 95]: the IC50 (read-out: IC50) turned out to be 7.2 nM.
Regarding `CCc1cc(CCCNC(=O)OC)cc([C@@H](C)N(C(=O)[C@H]2CNCCO2)C2CC2)n1` [Example 120], the IC50 under setting [1] was 1.7 nM.
For `COC(=O)NCCCn1nc([C@@H](C)N(C(=O)[C@H]2CNC[C@@H](C)O2)C2CC2)cc1C(C)(C)c1ccccc1` [Example 390], under setting [1], the half-maximal inhibitory concentration (IC50) turned out to be 3.5 nM.
Same read-out and setting: the result for `COC(=O)NCCCc1cc([C@@H](C)N(C(=O)[C@H]2CN[C@@H](C)CO2)C2CC2)cc(C2CC2)n1` [Example 352] reads 7.6 nM.
Still for that read-out and setting: the result for `CCOC[C@@H]1CNC[C@H](C(=O)N(C2CC2)[C@@H](C)c2nn(CCCNC(=O)OC)c3nc(C)ccc23)O1` [Example 312] reads 0.7 nM; that for `COC(=O)NCCCn1nc([C@@H](C)N(C(=O)[C@H]2CNCCO2)C2CC2)cc1-c1ccccc1F` [Example 173], 0.3 nM.
